Experimental findings from PubChem BioAssay (NCI) are described below.

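The compound was tested at five concentrations on cells cultured in 96-well plates, with a 48-hour exposure period. Here, GI50 denotes the concentration required for 50% inhibition of growth. The concentration for full growth arrest is given as TGI.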

Test systems include OVCAR-5 ovarian; NCI-H460 lung; SK-MEL-5 melanoma; ACHN renal; SW-620 colon; COLO 205 colon; CAKI-1 renal; 786-0 renal; OVCAR-3 ovarian.
Common to all, as to assay: NCI-60 cell line screen, 48 h

Turning to `CC(C)(C)c1ccc2c(c1)S(=O)(=O)Nc1ccc(Cl)cc1NS(=O)(=O)c1cc(C(C)(C)C)ccc1OCCOCCOCCO2`, the TGI in the assay on OVCAR-5 ovarian, in the assay with NCI-H460 lung, in the assay on SK-MEL-5 melanoma, in the assay with ACHN renal, in the assay with SW-620 colon and in the assay with COLO 205 colon was over 100 µM each time. Moreover, the TGI in the assay on CAKI-1 renal, in the assay on 786-0 renal and in the assay with OVCAR-3 ovarian was over 100 µM throughout.
Take `Cc1ccc(C)c(N2C/C(=N\NC(=O)CC#N)C(c3nc4ccccc4s3)C(=O)C2=O)c1` (centres undefined): the TGI with NCI-H460 lung, in the assay with SK-MEL-5 melanoma, with ACHN renal, in the assay on SW-620 colon, in the assay with COLO 205 colon and in the assay with CAKI-1 renal was over 100 µM each time. Besides, the TGI in the assay with 786-0 renal and in the assay with OVCAR-3 ovarian was over 100 µM throughout.
Turning to `COc1cccc(/C=N/[N-]C(=O)c2ccncc2)c1[O-].COc1cccc(/C=N/[N-]C(=O)c2ccncc2)c1[O-].[O]=[U](=[O])([OH2+])[OH2+]`, the GI50 in the assay with OVCAR-5 ovarian was 6.79 µM; with NCI-H460 lung, 3.46 µM; in the assay with SK-MEL-5 melanoma, 11.6 µM; in the assay on ACHN renal it was 3.79 µM; in the assay with SW-620 colon it was 7.81 µM; with COLO 205 colon, 4.09 µM. Also, the GI50 in the assay with CAKI-1 renal was 3.91 µM; in the assay on 786-0 renal, 4.37 µM; with OVCAR-3 ovarian, 3.08 µM. Moreover, the TGI in the assay on OVCAR-5 ovarian was over 100 µM; in the assay with NCI-H460 lung, over 40.3 µM; in the assay on SK-MEL-5 melanoma it was over 100 µM; with ACHN renal, 27.7 µM; in the assay with SW-620 colon, over 100 µM; in the assay on COLO 205 colon, over 100 µM. Also, the TGI in the assay with CAKI-1 renal was 22.1 µM; in the assay on 786-0 renal, 48.6 µM; in the assay on OVCAR-3 ovarian it was over 100 µM.
On to `CCN1c2ccccc2-c2c3c1cc(C)cc3c1ccccc1[n+]2CC`, for which the TGI in the assay on OVCAR-5 ovarian amounted to 4.1 µM; in the assay on NCI-H460 lung, 2.73 µM; in the assay on SK-MEL-5 melanoma it was 1.84 µM; in the assay with ACHN renal, 8.95 µM; in the assay with SW-620 colon, 6.63 µM; with CAKI-1 renal, 5.88 µM. For the same compound, the TGI turned out to be 4.22 µM in the assay on 786-0 renal and 2.39 µM with OVCAR-3 ovarian.
`Nc1ccccc1C(=O)/C=C/c1c(O)ccc2ccccc12`: the TGI with OVCAR-5 ovarian, with NCI-H460 lung, in the assay with SK-MEL-5 melanoma, with ACHN renal, with SW-620 colon and in the assay with COLO 205 colon was over 100 µM in each case. Further, the TGI in the assay on CAKI-1 renal, with 786-0 renal and in the assay with OVCAR-3 ovarian was over 100 µM throughout.
On to `Cc1[nH]c2ccccc2c1C1Cc2ccccc2N1C(=O)C#Cc1ccc([N+](=O)[O-])cc1` (centres undefined), for which the TGI with OVCAR-5 ovarian, in the assay with NCI-H460 lung, with ACHN renal, with SW-620 colon, with 786-0 renal and in the assay on OVCAR-3 ovarian was over 100 µM each time.
As for `N#CC(=Nc1ccccc1N(C(=O)c1ccccc1)C(=O)c1ccccc1)c1ccccc1`, the TGI with OVCAR-5 ovarian is over 100 µM; with NCI-H460 lung, over 100 µM; with SK-MEL-5 melanoma, over 100 µM; in the assay with ACHN renal, over 100 µM; with SW-620 colon, over 62.2 µM; in the assay with COLO 205 colon, over 64.6 µM. For the same compound, the TGI in the assay with CAKI-1 renal, in the assay on 786-0 renal and in the assay on OVCAR-3 ovarian was over 100 µM each time.
For the compound `COc1cc(/C=C2\[C@H]3c4c(c(OC)c(C)c(OC)c4OC)CC(C(=O)N2Cc2ccccc2)N3C)c(OC)c(C)c1OC`, the TGI turned out to be 71.8 µM in the assay with OVCAR-5 ovarian; 32 µM with NCI-H460 lung; 33 µM with SK-MEL-5 melanoma; 78.7 µM in the assay with ACHN renal; 41.5 µM in the assay on SW-620 colon; 32.5 µM in the assay with COLO 205 colon. Moreover, the figures for the TGI with CAKI-1 renal, with 786-0 renal and in the assay on OVCAR-3 ovarian were 73.6 µM, 40.6 µM and 31.2 µM, respectively.
Turning to `CC(C(=O)c1ccc(Cl)cc1)/C(=N/NC(=O)NN)C(=O)Nc1cccc(C(F)(F)F)c1` (centres undefined), the TGI in the assay with OVCAR-5 ovarian, in the assay on NCI-H460 lung, with SK-MEL-5 melanoma, in the assay on ACHN renal, in the assay on SW-620 colon and with COLO 205 colon was over 100 µM throughout. Moreover, the TGI with CAKI-1 renal, in the assay on 786-0 renal and in the assay with OVCAR-3 ovarian was over 100 µM in each case.
`CCOC(=O)NC(=O)c1cn(C2CCCCC2)c(=O)[nH]c1=O`: the TGI in the assay with OVCAR-5 ovarian, with NCI-H460 lung, in the assay with ACHN renal, in the assay on SW-620 colon, with COLO 205 colon and in the assay with CAKI-1 renal was over 100 µM in each case. For the same compound, the TGI in the assay with 786-0 renal and in the assay with OVCAR-3 ovarian was over 100 µM each time.
Consider `COc1c(C)n(CCO)ccc1=O`, for which the TGI in the assay on OVCAR-5 ovarian, with NCI-H460 lung, in the assay with SK-MEL-5 melanoma, in the assay with ACHN renal, with SW-620 colon and in the assay on COLO 205 colon was over 100 µM in each case. Also, the TGI in the assay with CAKI-1 renal, in the assay with 786-0 renal and in the assay with OVCAR-3 ovarian was over 100 µM throughout.
Take `Cc1ccccc1C1=[N+]([O-])c2ccc(Cl)cc2C1=O`: the TGI in the assay with OVCAR-5 ovarian came out at 37.8 µM; with NCI-H460 lung, 30.9 µM; in the assay on SK-MEL-5 melanoma, 26.7 µM; in the assay with ACHN renal it was 25.5 µM; in the assay with SW-620 colon it was 40.9 µM; in the assay on COLO 205 colon, 20.2 µM. The TGI in the assay with 786-0 renal stood at 32.9 µM; with OVCAR-3 ovarian, 7.17 µM.
Take `CCC1CN2CCc3cc(OC)c(OC)cc3C2CC1CC1c2cc(OC)c(OC)cc2CCN1C(=O)C1CCCN1` (centres undefined): the TGI is over 100 µM with OVCAR-5 ovarian; 74.8 µM in the assay with NCI-H460 lung; 31.3 µM with SK-MEL-5 melanoma; over 100 µM with ACHN renal; over 100 µM in the assay on SW-620 colon; 25.7 µM in the assay on COLO 205 colon. In addition, the results for the TGI in the assay on CAKI-1 renal, with 786-0 renal and in the assay on OVCAR-3 ovarian were over 100 µM, 54.8 µM and 90 µM, respectively.
